Measured values taken from patent US11878970B2, “Allosteric chromenone inhibitors of phosphoinositide 3-kinase (PI3K) for the treatment of disease” (Petra Pharma Corporation, priority 2021, dated 2024).

Assays:
[1] = molecular target: PI3K-α (PIK3CA) in MDA-MB-453 cells (Homo sapiens, UniProt P42336); experiment: PI3K-alpha kinase (PIK3CA) in vitro cell based assay, MDA-MB-453 cells, SureFire Ultra AlphaLisa; settings: read-out: PI3K-α (PIK3CA) in vitro cell based assay IC50
Outline: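 Cells treated 3 h in serum-free MEM with 1 μg/mL insulin, 10-point 1:3 series in 0.3% DMSO, then lysed for SureFire Ultra AlphaLisa read-out. Inhibition normalized to DMSO (max) and 1 μM GDC-0032 (min); duplicate averages fitted by 4-parameter logistic for relative IC50.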

[2] = molecular target: T1, PI3K-α (PIK3CA) H1047R mutant, p110α/p85α complex (Homo sapiens, UniProt P42336, H1047R); experiment: PI3K-alpha kinase (PIK3CA) biochemical activity, ADP-Glo, H1047R mutant
T1 construct: Recombinant, catalytically active human full length PIK3KA Wild-type and H1047R mutant; 6×His (N); purchased EMD Millipore Sigma 14-792M
T1 sequence (P42336 whole entry H1047R): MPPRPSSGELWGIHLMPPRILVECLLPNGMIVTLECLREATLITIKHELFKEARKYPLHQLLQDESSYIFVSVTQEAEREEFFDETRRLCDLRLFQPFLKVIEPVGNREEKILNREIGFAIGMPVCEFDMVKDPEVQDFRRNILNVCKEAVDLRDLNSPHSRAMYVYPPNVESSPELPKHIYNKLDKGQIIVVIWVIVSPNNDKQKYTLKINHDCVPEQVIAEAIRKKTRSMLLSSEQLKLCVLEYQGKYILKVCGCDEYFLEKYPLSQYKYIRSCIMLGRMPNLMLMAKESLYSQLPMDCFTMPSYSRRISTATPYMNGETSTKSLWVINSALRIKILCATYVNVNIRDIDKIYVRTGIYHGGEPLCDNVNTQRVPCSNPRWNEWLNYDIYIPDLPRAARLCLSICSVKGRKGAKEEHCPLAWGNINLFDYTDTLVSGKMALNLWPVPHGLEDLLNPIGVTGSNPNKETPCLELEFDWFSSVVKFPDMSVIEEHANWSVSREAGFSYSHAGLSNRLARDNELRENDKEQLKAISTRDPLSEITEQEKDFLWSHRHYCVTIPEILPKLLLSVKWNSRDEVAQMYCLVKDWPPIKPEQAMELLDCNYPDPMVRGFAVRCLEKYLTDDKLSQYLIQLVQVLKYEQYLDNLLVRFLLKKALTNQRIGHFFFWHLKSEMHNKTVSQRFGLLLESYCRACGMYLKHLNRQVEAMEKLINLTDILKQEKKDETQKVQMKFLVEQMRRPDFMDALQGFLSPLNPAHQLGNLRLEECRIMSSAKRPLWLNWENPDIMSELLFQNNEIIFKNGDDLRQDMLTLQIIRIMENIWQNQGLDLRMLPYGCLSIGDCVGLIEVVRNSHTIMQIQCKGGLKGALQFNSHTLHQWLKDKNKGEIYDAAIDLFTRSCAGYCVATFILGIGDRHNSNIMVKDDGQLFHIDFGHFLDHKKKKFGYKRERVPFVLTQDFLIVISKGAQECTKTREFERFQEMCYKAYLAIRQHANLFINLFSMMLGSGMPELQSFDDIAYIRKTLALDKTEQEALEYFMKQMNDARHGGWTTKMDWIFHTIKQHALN
T1 sequence (P27986 whole entry partner): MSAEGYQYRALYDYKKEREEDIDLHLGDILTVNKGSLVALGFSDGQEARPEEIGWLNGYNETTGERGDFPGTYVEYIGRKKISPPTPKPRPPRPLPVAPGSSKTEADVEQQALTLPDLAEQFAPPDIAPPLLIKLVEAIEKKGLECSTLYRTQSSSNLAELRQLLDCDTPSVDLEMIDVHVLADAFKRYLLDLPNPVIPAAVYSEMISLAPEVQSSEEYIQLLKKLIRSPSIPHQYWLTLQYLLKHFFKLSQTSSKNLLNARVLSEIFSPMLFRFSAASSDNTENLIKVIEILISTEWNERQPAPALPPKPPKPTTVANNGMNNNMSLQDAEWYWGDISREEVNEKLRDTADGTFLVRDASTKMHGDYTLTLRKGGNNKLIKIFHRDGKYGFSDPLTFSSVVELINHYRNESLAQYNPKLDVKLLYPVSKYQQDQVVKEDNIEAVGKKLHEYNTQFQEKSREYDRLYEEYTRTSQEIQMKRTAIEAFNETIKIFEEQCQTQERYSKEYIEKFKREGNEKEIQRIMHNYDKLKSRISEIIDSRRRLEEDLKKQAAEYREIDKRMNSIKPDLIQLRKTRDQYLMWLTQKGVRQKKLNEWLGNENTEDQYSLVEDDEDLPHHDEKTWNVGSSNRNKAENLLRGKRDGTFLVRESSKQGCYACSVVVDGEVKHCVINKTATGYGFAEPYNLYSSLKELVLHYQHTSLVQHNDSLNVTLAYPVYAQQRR
Outline: (§1)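 ADP formation measured by ADP-Glo luminescence after reaction at 27 °C to about 10% ATP turnover, using 20 uM ATP, 50 uM PIP2diC8 or soy PI lipid, HEPES pH 7.4 with MgCl2. Enzyme (1-5 nM WT or H1047R p110α/p85α) and compound preincubated 1 h first; 10-point 1:3 curves fitted four-parameter for IC50.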

[3] = molecular target: T2, PI3K-α (PIK3CA) wild-type (WT), p110α/p85α complex (Homo sapiens, UniProt P42336); experiment: PI3K-alpha kinase (PIK3CA) biochemical activity, ADP-Glo, wild-type
T2 construct: Recombinant, catalytically active human full length PIK3KA Wild-type and H1047R mutant; 6×His (N); purchased EMD Millipore Sigma 14-602M
Outline: as §1

[4] = PIP2diC8 lipid substrate (footnote 1)

PI3K-α (PIK3CA) in MDA-MB-453 cells, sequence (P27986 2-724): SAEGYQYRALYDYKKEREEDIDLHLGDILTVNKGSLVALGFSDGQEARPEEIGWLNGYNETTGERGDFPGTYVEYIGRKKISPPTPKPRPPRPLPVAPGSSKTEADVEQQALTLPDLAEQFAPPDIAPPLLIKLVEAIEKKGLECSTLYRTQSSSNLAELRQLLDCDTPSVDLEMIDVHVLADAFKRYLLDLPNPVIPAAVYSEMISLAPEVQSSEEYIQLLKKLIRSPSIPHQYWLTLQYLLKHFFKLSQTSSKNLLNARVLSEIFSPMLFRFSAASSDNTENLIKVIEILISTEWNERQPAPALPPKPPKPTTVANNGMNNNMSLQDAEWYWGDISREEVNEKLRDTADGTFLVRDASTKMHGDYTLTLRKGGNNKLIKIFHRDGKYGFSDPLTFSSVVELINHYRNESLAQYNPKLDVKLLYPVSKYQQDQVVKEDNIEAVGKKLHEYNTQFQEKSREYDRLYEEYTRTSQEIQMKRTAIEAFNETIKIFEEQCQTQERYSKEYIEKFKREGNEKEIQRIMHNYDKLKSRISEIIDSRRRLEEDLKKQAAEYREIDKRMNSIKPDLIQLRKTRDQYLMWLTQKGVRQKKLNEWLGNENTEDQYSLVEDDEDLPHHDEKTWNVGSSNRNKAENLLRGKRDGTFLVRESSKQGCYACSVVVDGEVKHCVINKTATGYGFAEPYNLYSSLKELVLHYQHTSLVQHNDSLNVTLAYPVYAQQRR
PI3K-α (PIK3CA) in MDA-MB-453 cells, sequence (P42336 whole entry): as the sequence (P42336 whole entry H1047R) above, with R1047H counted along it

SMILES: Cc1cc(C(C)Nc2ccccc2C(=O)O)c2oc(-c3cc4ccncc4o3)cc(=O)c2c1 (stereo not drawn) [Example 7, 2-[1-(2-Furo[2,3-c]pyridin-2-yl-6-methyl-4-oxo-chromen-8-yl)ethylamino]benzoic acid]
- IC50 [1]: 50 to 100 nM
- IC50 [2, 4]: < 500 nM
- IC50 [3, 4]: < 500 nM

SMILES: Cc1cc(C(C)Nc2ccccc2C(=O)O)c2oc(-c3cnc4nn(C)cc4c3)cc(=O)c2c1 (stereo not drawn) [Example 9, 2-[1-[6-Methyl-2-(2-methylpyrazolo[3,4-b]pyridin-5-yl)-4-oxo-chromen-8-yl]ethylamino]benzoic acid]
- IC50 [1]: > 500 nM
- IC50 [2, 4]: < 500 nM
- IC50 [3, 4]: 500 to 1000 nM

SMILES: Cc1cc(C(C)Nc2ccccc2C(=O)O)c2oc(-c3ccc4cc[nH]c4c3)cc(=O)c2c1 (stereo not drawn) [Example 18, 2-[1-[2-(1H-Indol-6-yl)-6-methyl-4-oxo-chromen-8-yl]ethylamino]benzoic acid]
- IC50 [1]: 100 to 500 nM
- IC50 ([2]; Soy PI lipid substrate): < 500 nM
- IC50 ([3]; Soy PI lipid substrate): 1000 to 5000 nM

SMILES: C[C@@H](Nc1ccc(Cl)nc1C(=O)O)c1cc(C(F)(F)F)cc2c(=O)cc(-c3ccc4nn(C)cc4c3)oc12 [Example 169, 6-Chloro-3-[[(1R)-1-[2-(2-methylindazol-5-yl)-4-oxo-6-(trifluoromethyl)chromen-8-yl]ethyl]amino]pyridine-2-carboxylic acid]
- IC50 [1]: 50 to 100 nM
- IC50 ([2]; Soy PI lipid substrate): < 500 nM
- IC50 ([3]; Soy PI lipid substrate): 500 to 1000 nM

SMILES: Cc1cc(C(C)Nc2ccc(Cl)nc2C(=O)O)c2oc(-c3ccc4cc[nH]c4n3)cc(=O)c2c1 (stereo not drawn) [Example 195, 6-Chloro-3-[1-[6-methyl-4-oxo-2-(1H-pyrrolo[2,3-b]pyridin-6-yl)chromen-8-yl]ethylamino]pyridine-2-carboxylic acid]
- IC50 [1]: < 50 nM
- IC50 ([2]; Soy PI lipid substrate): < 500 nM
- IC50 ([3]; Soy PI lipid substrate): 500 to 1000 nM

SMILES: Cc1cc([C@@H](C)Nc2ccc(Cl)nc2C(=O)O)c2oc(-c3cc4ccccc4[nH]3)c(C)c(=O)c2c1 [Example 196, 6-Chloro-3-[[(1R)-1-[2-(1H-indol-2-yl)-3,6-dimethyl-4-oxo-chromen-8-yl]ethyl]amino]pyridine-2-carboxylic acid]
- IC50 [1]: < 50 nM
- IC50 ([2]; Soy PI lipid substrate): < 500 nM
- IC50 ([3]; Soy PI lipid substrate): 1000 to 5000 nM

SMILES: Cc1cc([C@@H](C)Nc2cccc(F)c2C(=O)O)c2oc(-c3ccc4c(cnn4C)c3)cc(=O)c2c1 [Example 197, 2-Fluoro-6-[[(1R)-1-[6-methyl-2-(1-methylindazol-5-yl)-4-oxo-chromen-8-yl]ethyl]amino]benzoic acid]
- IC50 [1]: < 50 nM
- IC50 ([2]; Soy PI lipid substrate): < 500 nM
- IC50 ([3]; Soy PI lipid substrate): 500 to 1000 nM

SMILES: Cc1cc([C@@H](C)Nc2ccccc2C(=O)O)c2oc(-c3cc(C(F)(F)F)c4nn(C)cc4c3)cc(=O)c2c1 [Example 198, 2-[[(1R)-1-[6-Methyl-2-[2-methyl-7-(trifluoromethyl)indazol-5-yl]-4-oxo-chromen-8-yl]ethyl]amino]benzoic acid]
- IC50 [1]: 50 to 100 nM
- IC50 ([2]; Soy PI lipid substrate): < 500 nM
- IC50 ([3]; Soy PI lipid substrate): < 500 nM

SMILES: Cc1cc([C@@H](C)Nc2ccccc2C(=O)O)c2oc(-c3cc4cnccc4s3)c(C)c(=O)c2c1 [Example 203, 2-[[(1R)-1-(3,6-Dimethyl-4-oxo-2-thieno[3,2-c]pyridin-2-yl-chromen-8-yl)ethyl]amino]benzoic acid]
- IC50 [1]: < 50 nM
- IC50 ([2]; Soy PI lipid substrate): < 500 nM
- IC50 ([3]; Soy PI lipid substrate): < 500 nM

SMILES: Cc1cc([C@@H](C)Nc2ccc(F)c(F)c2C(=O)O)c2oc(-c3ccc4nn(C)cc4c3)c(C)c(=O)c2c1 [Example 204, 6-[[(1R)-1-[3,6-Dimethyl-2-(2-methylindazol-5-yl)-4-oxo-chromen-8-yl]ethyl]amino]-2,3-difluoro-benzoic acid]
- IC50 [1]: 50 to 100 nM
- IC50 ([2]; Soy PI lipid substrate): < 500 nM
- IC50 ([3]; Soy PI lipid substrate): 500 to 1000 nM

SMILES: Cc1cc([C@@H](C)Nc2cccnc2C(=O)O)c2oc(-c3nn(C)c4ccccc34)c(C)c(=O)c2c1 [Example 205, 3-[[(1R)-1-[3,6-Dimethyl-2-(1-methylindazol-3-yl)-4-oxo-chromen-8-yl]ethyl]amino]pyridine-2-carboxylic acid]
- IC50 [1]: 50 to 100 nM
- IC50 ([2]; Soy PI lipid substrate): 1000 to 5000 nM
- IC50 ([3]; Soy PI lipid substrate): > 10000 nM

SMILES: Cc1cc([C@@H](C)Nc2ccccc2C(=O)O)c2oc(-c3cc4cnccc4o3)c(C(F)(F)F)c(=O)c2c1 [Example 209, 2-[[(1R)-1-[2-Furo[3,2-c]pyridin-2-yl-6-methyl-4-oxo-3-(trifluoromethyl)chromen-8-yl]ethyl]amino]benzoic acid]
- IC50 [1]: < 50 nM
- IC50 ([2]; Soy PI lipid substrate): < 500 nM
- IC50 ([3]; Soy PI lipid substrate): 500 to 1000 nM

SMILES: Cc1cc([C@@H](C)Nc2ccccc2C(=O)O)c2oc(-c3ccc4nn(Cc5ccccc5)cc4c3)c(C)c(=O)c2c1 [Example 210, 2-[[(1R)-1-[2-(2-Benzylindazol-5-yl)-3,6-dimethyl-4-oxo-chromen-8-yl]ethyl]amino]benzoic acid]
- IC50 [1]: < 50 nM
- IC50 ([2]; Soy PI lipid substrate): < 500 nM
- IC50 ([3]; Soy PI lipid substrate): 500 to 1000 nM

SMILES: Cc1cc([C@@H](C)Nc2ccccc2C(=O)O)c2oc(-c3ccc4c(cnn4Cc4ccccc4)c3)c(C)c(=O)c2c1 [Example 211, 2-[[(1R)-1-[2-(1-Benzylindazol-5-yl)-3,6-dimethyl-4-oxo-chromen-8-yl]ethyl]amino]benzoic acid]
- IC50 [1]: 50 to 100 nM
- IC50 ([2]; Soy PI lipid substrate): < 500 nM
- IC50 ([3]; Soy PI lipid substrate): 500 to 1000 nM

SMILES: Cc1cc([C@@H](C)Nc2ccc(Cl)nc2C(=O)O)c2oc(-c3cc4cnccc4o3)c(C)c(=O)c2c1 [Example 214, 6-Chloro-3-[[(1R)-1-(2-furo[3,2-c]pyridin-2-yl-3,6-dimethyl-4-oxo-chromen-8-yl)ethyl]amino]pyridine-2-carboxylic acid]
- IC50 [1]: < 50 nM
- IC50 ([2]; Soy PI lipid substrate): < 500 nM
- IC50 ([3]; Soy PI lipid substrate): < 500 nM

SMILES: Cc1cc([C@@H](C)Nc2ccc(C)nc2C(=O)O)c2oc(-c3ccc4nc(C)cn4c3)cc(=O)c2c1 [Example 225, 6-Methyl-3-[[(1R)-1-[6-methyl-2-(2-methylimidazo[1,2-a]pyridin-6-yl)-4-oxo-chromen-8-yl]ethyl]amino]pyridine-2-carboxylic acid]
- IC50 [1]: 100 to 500 nM
- IC50 ([2]; Soy PI lipid substrate): < 500 nM
- IC50 ([3]; Soy PI lipid substrate): 1000 to 5000 nM

SMILES: Cc1cc([C@@H](C)Nc2cccnc2C(=O)O)c2oc(-c3ccc4nn(C)cc4c3)cc(=O)c2c1 [Example 226, 3-[[(1R)-1-[6-Methyl-2-(2-methylindazol-5-yl)-4-oxo-chromen-8-yl]ethyl]amino]pyridine-2-carboxylic acid]
- IC50 [1]: 100 to 500 nM
- IC50 ([2]; Soy PI lipid substrate): 500 to 1000 nM
- IC50 ([3]; Soy PI lipid substrate): 1000 to 5000 nM

SMILES: Cc1cc([C@@H](C)Nc2cccc(F)c2C(=O)O)c2oc(-c3ccc4nn(C)cc4c3)c(C)c(=O)c2c1 [Example 227, 2-[[(1R)-1-[3,6-Dimethyl-2-(2-methylindazol-5-yl)-4-oxo-chromen-8-yl]ethyl]amino]-6-fluoro-benzoic acid]
- IC50 [1]: < 50 nM
- IC50 ([2]; Soy PI lipid substrate): < 500 nM
- IC50 ([3]; Soy PI lipid substrate): 500 to 1000 nM

SMILES: Cc1cc([C@@H](C)Nc2cccc(F)c2C(=O)O)c2oc(-c3ccc4nc(C)cn4c3)cc(=O)c2c1 [Example 228, 2-Fluoro-6-[[(1R)-1-[6-methyl-2-(2-methylimidazo[1,2-a]pyridin-6-yl)-4-oxo-chromen-8-yl]ethyl]amino]benzoic acid]
- IC50 [1]: 100 to 500 nM
- IC50 ([2]; Soy PI lipid substrate): < 500 nM
- IC50 ([3]; Soy PI lipid substrate): 500 to 1000 nM

SMILES: Cc1cc([C@@H](C)Nc2cccc(F)c2C(=O)O)c2oc(-c3ccc4nc(C)cn4c3)c(C)c(=O)c2c1 [Example 229, 2-[[(1R)-1-[3,6-Dimethyl-2-(2-methylimidazo[1,2-a]pyridin-6-yl)-4-oxo-chromen-8-yl]ethyl]amino]-6-fluoro-benzoic acid]
- IC50 [1]: 100 to 500 nM
- IC50 ([2]; Soy PI lipid substrate): < 500 nM
- IC50 ([3]; Soy PI lipid substrate): < 500 nM

SMILES: Cc1cc([C@@H](C)Nc2cccc(F)c2C(=O)O)c2oc(-c3nn(C)c4ccccc34)c(C)c(=O)c2c1 [Example 230, 2-[[(1R)-1-[3,6-Dimethyl-2-(1-methylindazol-3-yl)-4-oxo-chromen-8-yl]ethyl]amino]-6-fluoro-benzoic acid]
- IC50 [1]: 50 to 100 nM
- IC50 ([2]; Soy PI lipid substrate): < 500 nM
- IC50 ([3]; Soy PI lipid substrate): < 500 nM

SMILES: Cc1cc([C@@H](C)Nc2cccnc2C(=O)O)c2oc(-c3cc(C)c4nn(C)cc4c3)cc(=O)c2c1 [Example 231, 3-[[(1R)-1-[2-(2,7-Dimethylindazol-5-yl)-6-methyl-4-oxo-chromen-8-yl]ethyl]amino]pyridine-2-carboxylic acid]
- IC50 [1]: 100 to 500 nM
- IC50 ([2]; Soy PI lipid substrate): 1000 to 5000 nM
- IC50 ([3]; Soy PI lipid substrate): > 10000 nM

SMILES: Cc1cc([C@@H](C)Nc2cccnc2C(=O)O)c2oc(-c3nn(C)c4ccccc34)cc(=O)c2c1 [Example 232, 3-[[(1R)-1-[6-Methyl-2-(1-methylindazol-3-yl)-4-oxo-chromen-8-yl]ethyl]amino]pyridine-2-carboxylic acid]
- IC50 [1]: 100 to 500 nM
- IC50 ([2]; Soy PI lipid substrate): 500 to 1000 nM
- IC50 ([3]; Soy PI lipid substrate): > 10000 nM

SMILES: Cc1cc([C@@H](C)Nc2ccc(C(F)(F)F)nc2C(=O)O)c2oc(-c3ccc4nc(C)sc4n3)c(C)c(=O)c2c1 [Example 233, 3-[[(1R)-1-[3,6-Dimethyl-2-(2-methylthiazolo[5,4-b]pyridin-5-yl)-4-oxo-chromen-8-yl]ethyl]amino]-6-(trifluoromethyl)pyridine-2-carboxylic acid]
- IC50 [1]: 100 to 500 nM
- IC50 ([2]; Soy PI lipid substrate): < 500 nM
- IC50 ([3]; Soy PI lipid substrate): 1000 to 5000 nM

SMILES: Cc1cc([C@@H](C)Nc2ccc(C(F)(F)F)cc2C(=O)O)c2oc(-c3ccc4nc(C)sc4n3)c(C)c(=O)c2c1 [Example 234, 2-[[(1R)-1-[3,6-Dimethyl-2-(2-methylthiazolo[5,4-b]pyridin-5-yl)-4-oxo-chromen-8-yl]ethyl]amino]-5-(trifluoromethyl)benzoic acid]
- IC50 [1]: 100 to 500 nM
- IC50 ([2]; Soy PI lipid substrate): 1000 to 5000 nM
- IC50 ([3]; Soy PI lipid substrate): 1000 to 5000 nM
